Inconclusive results and toxic doses are left out. Rule for the calls: active = survival T/C of 150% or more; inactive = T/C below 125% in these data. Residues, ends and D or L forms follow the SMILES beside them. *: point of attachment. Cbz = O=C(OCc1ccccc1)*; Bn = c1ccc(C*)cc1
Tested on: CD2F1 mice, L1210 leukemia ip, survival T/C
Assay: NCI In Vivo Anticancer Drug Screen. Data for tumor model L1210 Leukemia (intraperitoneal) in CD2F1 (CDF1) mice
Details: higher = longer survival
Outline: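 Mice carrying a transplanted tumor received test compound or vehicle alone. The value is the measurement in the treated group divided by that in the vehicle-treated control group.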

[1] = endpoint: mean survival time, dose: 50.0 mg/kg/injection, schedule: Q04DX003 (ip), vehicle: saline
[2] = endpoint: mean survival time, dose: 100.0 mg/kg/injection, schedule: Q04DX003 (ip), vehicle: saline
[3] = endpoint: mean survival time, dose: 200.0 mg/kg/injection, schedule: Q04DX003 (ip), vehicle: saline
[4] = endpoint: mean survival time, dose: 100.0 mg/kg/injection, schedule: Q04DX003 (ip), vehicle: saline with Tween-80
[5] = endpoint: mean survival time, dose: 200.0 mg/kg/injection, schedule: Q04DX003 (ip), vehicle: saline with Tween-80
[6] = endpoint: mean survival time, dose: 400.0 mg/kg/injection, schedule: Q04DX003 (ip), vehicle: saline with Tween-80
[7] = endpoint: mean survival time, dose: 100.0 mg/kg/injection, schedule: Q01DX009 (ip), vehicle: saline with Tween-80
[8] = endpoint: mean survival time, dose: 200.0 mg/kg/injection, schedule: Q01DX009 (ip), vehicle: saline with Tween-80
[9] = endpoint: mean survival time, dose: 100.0 mg/kg/injection, schedule: Q01DX001 (ip), vehicle: saline
[10] = endpoint: mean survival time, dose: 200.0 mg/kg/injection, schedule: Q01DX001 (ip), vehicle: saline
[11] = endpoint: mean survival time, dose: 400.0 mg/kg/injection, schedule: Q01DX001 (ip), vehicle: saline
[12] = endpoint: mean survival time, dose: 100.0 mg/kg/injection, schedule: Q01DX001 (ip), vehicle: saline with Tween-80
[13] = endpoint: mean survival time, dose: 200.0 mg/kg/injection, schedule: Q01DX001 (ip), vehicle: saline with Tween-80
[14] = endpoint: mean survival time, dose: 400.0 mg/kg/injection, schedule: Q01DX001 (ip), vehicle: saline with Tween-80

Measured: T/C

O=c1nc(N2CCCCCCC2)ccn1C1OC(CO)C(O)C1O (configuration not stated)
inactive: endpoint: median survival time, dose: 12.5 mg/kg/injection, schedule: Q01DX005 (ip), vehicle: water 98 % of control | endpoint: median survival time, dose: 25.0 mg/kg/injection, schedule: Q01DX005 (ip), vehicle: water 98 % of control | endpoint: median survival time, dose: 50.0 mg/kg/injection, schedule: Q01DX005 (ip), vehicle: water 118 % of control | endpoint: median survival time, dose: 100.0 mg/kg/injection, schedule: Q01DX005 (ip), vehicle: water 112 % of control | endpoint: median survival time, dose: 200.0 mg/kg/injection, schedule: Q01DX005 (ip), vehicle: water 104 % of control

O=C(/C=C/c1ccccc1)N1CCOCC1
inactive: [1] 102 % of control | [2] 96 % of control | [3] 100 % of control

COc1cc(/C=N/n2cnnc2)cc(OC)c1OC
inactive: [4] 101 % of control | [5] 95 % of control | [6] 96 % of control

CSc1nn(C2OC(COC(=O)c3ccccc3)C(OC(=O)c3ccccc3)C2OC(=O)c2ccccc2)c(=O)[nH]c1=S (configuration not stated)
inactive: endpoint: mean survival time, dose: 12.5 mg/kg/injection, schedule: Q01DX005 (ip), vehicle: distilled water + Tween-80 96 % of control | endpoint: mean survival time, dose: 25.0 mg/kg/injection, schedule: Q01DX005 (ip), vehicle: distilled water + Tween-80 98 % of control | endpoint: mean survival time, dose: 50.0 mg/kg/injection, schedule: Q01DX005 (ip), vehicle: distilled water + Tween-80 95 % of control | endpoint: mean survival time, dose: 100.0 mg/kg/injection, schedule: Q01DX005 (ip), vehicle: distilled water + Tween-80 93 % of control | endpoint: mean survival time, dose: 200.0 mg/kg/injection, schedule: Q01DX005 (ip), vehicle: distilled water + Tween-80 91 % of control

Clc1ccc2c(c1)Nc1cc(Cl)ccc1C=C2
inactive: [4] 98 % of control | [5] 93 % of control | [6] 87 % of control

CC1CC2(C)C(CC1=O)CC(C)C1C3CCC(O)C3(C)CCC12 (configuration not stated)
inactive: [4] 97 % of control | [5] 92 % of control | [6] 95 % of control

OCC1CCCCCCC1
inactive: endpoint: mean survival time, dose: 50.0 mg/kg/injection, schedule: Q01DX001 (ip), vehicle: carboxymethylcellulose (CMC) 100 % of control | endpoint: mean survival time, dose: 100.0 mg/kg/injection, schedule: Q01DX001 (ip), vehicle: carboxymethylcellulose (CMC) 100 % of control | endpoint: mean survival time, dose: 200.0 mg/kg/injection, schedule: Q01DX001 (ip), vehicle: carboxymethylcellulose (CMC) 102 % of control | endpoint: mean survival time, dose: 400.0 mg/kg/injection, schedule: Q01DX001 (ip), vehicle: carboxymethylcellulose (CMC) 96 % of control

O=C(O)CNCc1ccc2c(c1)OCCO2
inactive: endpoint: mean survival time, dose: 100.0 mg/kg/injection, schedule: Q01DX009 (ip), vehicle: Klucel (hydroxypropylcellulose) (HPC) 103 % of control | endpoint: mean survival time, dose: 200.0 mg/kg/injection, schedule: Q01DX009 (ip), vehicle: Klucel (hydroxypropylcellulose) (HPC) 98 % of control | endpoint: mean survival time, dose: 400.0 mg/kg/injection, schedule: Q01DX009 (ip), vehicle: Klucel (hydroxypropylcellulose) (HPC) 95 % of control

OCCN=c1c2ccccc2n(O)c2c1ccc1ccccc12
inactive: endpoint: mean survival time, dose: 50.0 mg/kg/injection, schedule: Q01DX009 (ip), vehicle: saline with Tween-80 104 % of control | [7] 112 % of control | [8] 108 % of control

CC(C)CC(C)NCCO (configuration not stated)
inactive: endpoint: mean survival time, dose: 75.0 mg/kg/injection, schedule: Q01DX001 (ip), vehicle: saline 98 % of control | endpoint: mean survival time, dose: 150.0 mg/kg/injection, schedule: Q01DX001 (ip), vehicle: saline 100 % of control

O=[N+]([O-])c1ccc(C2=CSc3ccccc3N2)cc1
inactive: endpoint: mean survival time, dose: 100.0 mg/kg/injection, schedule: Q04DX002 (ip), vehicle: saline with Tween-80 104 % of control | endpoint: mean survival time, dose: 200.0 mg/kg/injection, schedule: Q04DX002 (ip), vehicle: saline with Tween-80 108 % of control | endpoint: mean survival time, dose: 400.0 mg/kg/injection, schedule: Q04DX002 (ip), vehicle: saline with Tween-80 104 % of control

O=c1c2ccccc2ncn1CCc1ccncc1
inactive: [9] 104 % of control | [10] 101 % of control | [11] 103 % of control

CCCC[P+](c1ccccc1)(c1ccccc1)c1ccccc1
inactive: endpoint: mean survival time, dose: 5.0 mg/kg/injection, schedule: Q01DX009 (ip), vehicle: saline sonified 103 % of control | endpoint: mean survival time, dose: 5.0 mg/kg/injection, schedule: Q04DX003 (ip), vehicle: saline with Tween-80 97 % of control | endpoint: mean survival time, dose: 10.0 mg/kg/injection, schedule: Q01DX009 (ip), vehicle: saline sonified 110 % of control | endpoint: mean survival time, dose: 10.0 mg/kg/injection, schedule: Q04DX003 (ip), vehicle: saline with Tween-80 95 % of control | endpoint: mean survival time, dose: 20.0 mg/kg/injection, schedule: Q01DX009 (ip), vehicle: saline sonified 120 % of control | endpoint: mean survival time, dose: 20.0 mg/kg/injection, schedule: Q04DX003 (ip), vehicle: saline with Tween-80 98 % of control

O=C1OC(=O)C2C1C1CCC2C1(c1ccccc1)c1ccccc1 (configuration not stated)
inactive: [4] 97 % of control | [5] 97 % of control | [6] 97 % of control

OC(c1ccccc1)(c1ccccc1)c1nc2ccccc2o1
inactive: [7] 107 % of control | [4] 96 % of control | [8] 100 % of control | [5] 91 % of control | [6] 95 % of control

COC(=O)C(Cc1ccccc1)NC(=O)C(CSCc1ccccc1)NC(=O)OCc1ccccc1 (configuration not stated) (Cbz-Cys(Bn)-Phe-OMe; configuration not given here)
inactive: [12] 93 % of control | [7] 91 % of control | [13] 95 % of control | [14] 89 % of control

Nc1ccnnc1
inactive: [2] 98 % of control | [3] 101 % of control

ClC(Cl)(Cl)c1ccc(C(SCc2ccccc2)SCc2ccccc2)cc1
inactive: [12] 89 % of control | [13] 89 % of control | [14] 97 % of control

Cn1ncc2c1C(=O)c1nc(-c3ccccc3)c(-c3ccccc3)nc1C2=O
inactive: [1] 98 % of control | [2] 92 % of control

Nc1ccn(CCC(COCc2ccccc2)COCc2ccccc2)c(=O)n1
inactive: endpoint: mean survival time, dose: 100.0 mg/kg/injection, schedule: Q04DX003 (ip), vehicle: Klucel (hydroxypropylcellulose) (HPC) 100 % of control | endpoint: mean survival time, dose: 200.0 mg/kg/injection, schedule: Q04DX003 (ip), vehicle: Klucel (hydroxypropylcellulose) (HPC) 96 % of control | endpoint: mean survival time, dose: 400.0 mg/kg/injection, schedule: Q04DX003 (ip), vehicle: Klucel (hydroxypropylcellulose) (HPC) 96 % of control

Oc1ccc(-c2nc3ccccc3s2)cc1
inactive: [12] 91 % of control | [13] 95 % of control | [14] 91 % of control

O/N=C/C1CCCC[N-]1.[Co+3].[O-]/N=C/C1CCCC[N-]1.[O-]/N=C/C1CCCC[N-]1.[O-][Cl+3]([O-])([O-])O (configuration not stated)
inactive: [9] 108 % of control | [10] 96 % of control | [11] 96 % of control

C=C1C(=O)OC2(C)C(C)=C(C)C12C (configuration not stated)
inactive: [2] 101 % of control | [3] 112 % of control | endpoint: mean survival time, dose: 400.0 mg/kg/injection, schedule: Q04DX003 (ip), vehicle: saline 108 % of control

From PubChem BioAssay AID256 (DTP/NCI, 2004)
